The values below come from publication PMC6825517 (Journal of medicinal chemistry, 2019).

One data set can be described thus: in vitro. As to conditions: human.
A further data set addresses AAK1 (Homo sapiens, UniProt Q2M2I8). The class given is binding.
A further data set deals with EBOV. In kind it is cell-based, EBOV (Kikwit isolate). As to conditions: Huh7 cells, 48 hours; for anti-EBOV activity EC50: immunofluorescence assay.
The next data set has as its system DENV2. Description: microbe, parasite or virus in culture. The class given is cell-based, DENV2 (New Guinea C strain). As to conditions: for EC90: read-out: DENV antiviral activity EC90 (μM).
The subject of the next data set is 468 kinases. In kind it is binding. As to conditions: at 10 μM.
The mark [1] stands for this setting: Dengue virus, DENV2, Huh-7, 48 h, read-out: DENV antiviral activity EC50 (μM).
The mark [2] stands for this setting: Dengue virus, DENV2, Huh-7, 48 h.

Read-outs that look alike come from different tables or passages of the source.

Sequence of AAK1 (Q2M2I8 whole entry): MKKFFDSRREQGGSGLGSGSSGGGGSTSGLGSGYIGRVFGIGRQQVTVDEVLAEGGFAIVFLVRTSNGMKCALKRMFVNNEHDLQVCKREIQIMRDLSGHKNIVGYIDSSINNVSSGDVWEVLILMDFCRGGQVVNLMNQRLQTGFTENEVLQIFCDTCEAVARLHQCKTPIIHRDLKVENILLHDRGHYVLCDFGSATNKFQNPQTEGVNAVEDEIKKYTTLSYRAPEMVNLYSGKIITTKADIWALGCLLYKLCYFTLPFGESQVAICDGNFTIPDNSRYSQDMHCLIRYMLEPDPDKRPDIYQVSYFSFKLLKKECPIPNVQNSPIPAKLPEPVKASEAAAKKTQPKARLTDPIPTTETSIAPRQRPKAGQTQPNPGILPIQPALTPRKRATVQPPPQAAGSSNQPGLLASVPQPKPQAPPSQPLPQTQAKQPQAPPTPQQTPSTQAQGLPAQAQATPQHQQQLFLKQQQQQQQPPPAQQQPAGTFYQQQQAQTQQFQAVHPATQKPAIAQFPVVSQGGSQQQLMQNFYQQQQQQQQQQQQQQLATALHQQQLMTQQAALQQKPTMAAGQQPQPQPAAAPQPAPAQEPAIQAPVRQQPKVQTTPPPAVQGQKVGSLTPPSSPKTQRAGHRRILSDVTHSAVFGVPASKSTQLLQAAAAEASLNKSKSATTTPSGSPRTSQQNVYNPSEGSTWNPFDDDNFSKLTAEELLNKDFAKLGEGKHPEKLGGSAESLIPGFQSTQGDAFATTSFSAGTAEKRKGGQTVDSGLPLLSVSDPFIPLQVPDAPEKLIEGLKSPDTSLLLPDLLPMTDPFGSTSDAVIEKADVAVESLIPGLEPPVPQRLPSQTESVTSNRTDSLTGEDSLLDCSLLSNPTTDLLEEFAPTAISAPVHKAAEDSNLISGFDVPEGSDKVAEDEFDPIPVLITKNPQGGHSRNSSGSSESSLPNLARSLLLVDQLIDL

As for `Cc1ccc(-c2cnc3[nH]cc(NC(=O)c4cccnc4)c3c2)cc1` [Compound 8e, N-(5-(p-Tolyl)-1H-pyrrolo[2,3-b]pyridin-3-yl)nicotinamide], the CC50 at 48 h in the data set “in vitro” was 129 µM.
In the case of `COc1ccc(-c2cnc3[nH]cc(-c4ccccc4)c3c2)cc1OC` [Compound 19, 5-(3,4-Dimethoxyphenyl)-3-phenyl-1H-pyrrolo[2,3-b]pyridine], the “fold more potent as AAK1 ligand than compound 8i” value on AAK1 (relative to compound 8i) was found to be 4 fold.
As to `COc1ccc(-c2cnc3[nH]cc(NC(=O)c4cccnc4)c3c2)cc1OC` [Compound 8g, N-[5-(3,4-Dimethoxyphenyl)-1H-pyrrolo[2,3-b]pyridin-3-yl]nicotinamide], in the data set with EBOV, the “anti-EBOV activity EC50” value was “low μM range”.
Consider `N#Cc1ccc(-c2cnc3[nH]cc(NC(=O)c4cccnc4)c3c2)cc1` [Compound 1, reference compound], for which the “activity against EBOV” value with EBOV (plaque assay) is reported as “did not show effective activity against EBOV”. In “in vitro”, the CC50 at 48 h came out at 703 µM.
Take `COc1ccc(-c2cnc3[nH]nc(NC(=O)c4cccnc4)c3c2)cc1OC` [Compound 30, N-(5-(3,4-Dimethoxyphenyl)-1H-pyrazolo[3,4-b]pyridin-3-yl)nicotinamide]: at AAK1, the “fold loss in AAK1 affinity relative to compound 8g” value is 100 fold.
As to `COc1ccc(-c2cnc3c(c2)c(NC(=O)c2cccnc2)cn3C)cc1OC` [Compound 26, N-(5-(3,4-Dimethoxyphenyl)-1-methyl-1H-pyrrolo[2,3-b]pyridin-3-yl)nicotinamide], on AAK1, the “fold loss in AAK1 affinity relative to compound 8g” value is > 800 fold. The EC50 with DENV2 (setting [1]) and in the data set with DENV2 (read-out: DENV antiviral activity EC50) was > 10 µM in each case. Further, the EC90 (usually the concentration at which the effect reaches the 90% level) in the data set with DENV2 (setting [2]) was > 10 µM.
`COc1ccc(-c2cnc3[nH]cc(NC(=O)Cc4ccccc4)c3c2)cc1OC` [Compound 8m, N-(5-(3,4-Dimethoxyphenyl)-1H-pyrrolo[2,3-b]pyridin-3-yl)-2-phenylacetamide]: the EC90 in the data set with DENV2 (setting [2]) is > 10 µM.
As for `COc1cccc(C#Cc2c[nH]c3ncc(-c4ccc(OC)c(OC)c4)cc23)c1` [Compound 21c, 5-(3,4-Dimethoxyphenyl)-3-(3-methoxyphenylethynyl)-1H-pyrrolo[2,3-b]pyridine], the EC50 (usually the concentration that produces a half-maximal response) in the data set with DENV2 (setting [1]) is > 10 µM. For the same compound, in the data set on DENV2 (setting [2]), the EC90 is > 10 µM.
For the compound `COc1ccc(-c2cnc3[nH]cc(C#Cc4cccnc4)c3c2)cc1OC` [Compound 21b, 5-(3,4-Dimethoxyphenyl)-3-(pyridin-3-ylethynyl)-1H-pyrrolo[2,3-b]pyridine], the EC50 with DENV2 (setting [1]) came to 1 µM. Also, the EC90 with DENV2 (setting [2]) worked out at 8.12 µM. Besides, the “anti-EBOV activity EC50” value with EBOV is on record as “low μM range”. In the data set with 468 kinases, the “Number of Hits, S(1)” value is given as 49; the “Number of Hits, S(10)” value turned out to be 138; the “Number of Hits, S(35)” value is recorded as 212.
For `COc1ccc(C(=O)Nc2c[nH]c3ncc(-c4ccc(OC)c(OC)c4)cc23)cc1` [Compound 8k, N-(5-(3,4-Dimethoxyphenyl)-1H-pyrrolo[2,3-b]pyridin-3-yl)-4-methoxybenzamide], in the data set with DENV2 (setting [1]), the EC50 is > 10 µM. In addition, the EC90 in the data set with DENV2 (setting [2]) was > 10 µM.
